Test results reported in patent US20260224536A1, “ARYL HETEROCYCLIC KV1.3 INHIBITOR, PREPARATION METHOD THEREFOR, AND USE THEREOF” (SHANGHAI SHENSHI WISE TECHNOLOGY CO., LTD., priority 2022, published 2026).

Each molecule was assayed against Kv1.3 potassium channel (Homo sapiens, UniProt P22001) (assay: Whole-cell patch-clamp assay for inhibitory activity against Kv1.3 (peak current)). Settings: HEK293 cells stably expressing Kv1.3, patch-clamp.
Chain of Kv1.3 potassium channel (P22001 whole entry): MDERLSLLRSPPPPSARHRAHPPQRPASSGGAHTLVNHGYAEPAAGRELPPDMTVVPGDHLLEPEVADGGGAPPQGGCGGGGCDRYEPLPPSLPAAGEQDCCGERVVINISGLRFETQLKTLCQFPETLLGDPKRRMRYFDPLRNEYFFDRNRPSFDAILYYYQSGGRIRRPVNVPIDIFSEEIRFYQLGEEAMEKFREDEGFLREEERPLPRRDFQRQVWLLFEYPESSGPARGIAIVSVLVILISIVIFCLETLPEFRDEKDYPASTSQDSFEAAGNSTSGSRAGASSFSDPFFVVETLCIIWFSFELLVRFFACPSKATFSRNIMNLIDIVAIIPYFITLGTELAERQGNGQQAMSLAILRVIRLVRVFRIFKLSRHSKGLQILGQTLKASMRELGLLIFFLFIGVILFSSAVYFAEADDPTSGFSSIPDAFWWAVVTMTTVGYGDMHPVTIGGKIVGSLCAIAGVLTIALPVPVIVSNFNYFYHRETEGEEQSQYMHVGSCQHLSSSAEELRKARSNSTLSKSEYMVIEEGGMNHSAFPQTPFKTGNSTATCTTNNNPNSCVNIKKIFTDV
Type: cell-based
Source text: The voltage stimulation protocol for recording whole-cell Kv1.X potassium currents via patch-clamp was as follows. After formation of a whole-cell seal, the cell membrane voltage was clamped at −80 mV, and then stepped to +40 mV for 500 ms. […] The test data were acquired by EPC-10 amplifier (HEKA) and stored in the PatchMaster (HEKA) software. Recording electrodes were drawn from capillary glass tubes using a microelectrode puller. Under an inverted microscope, the recording electrode was brought into contact with the cell surface by manipulating a microelectrode manipulator. Negative-pressure suction was applied to form a GΩ seal. After formation of the […], a rapid capacitance compensation was given. The application of negative pressure was continued to rupture the cell membrane, forming a whole-cell recording mode. Then, a slow capacitance compensation was given, and the membrane capacitance and series resistance were recorded. No current leakage compensation was provided. Once the whole-cell recorded Kv1.X current stabilized, drug administration was started. Each drug concentration was allowed to act for 5 min (or until the current reached a steady state) before the next concentration was tested. Multiple concentrations were tested for each test compound. The cover glass plated with the cells was placed in a recording bath of the inverted microscope. The test compound and the compound-free extracellular fluid were allowed to sequentially flow through the recording bath from low concentrations to high concentrations using a gravity perfusion method, thus acting on the cells, and liquid exchange was performed using a vacuum pump during recording. For each cell, the current detected in the compound-free extracellular liquid was used as its own control group. The test was independently repeated three times using at least three cells per concentration. All electrophysiological experiments were performed at room temperature. […] First, the peak current after the action of each drug concentration and the peak current of the blank control were standardized and then the inhibition rate corresponding to each drug concentration was calculated Subsequently, the mean, standard deviation (SD), and standard error (SE) were calculated for the inhibition rate corresponding to each concentration. Using the above equation, the IC50 value for each compound was calculated, and the dose-dependent effect was subjected to non-linear fitting, where IC50 is the half maximal inhibitory concentration. The IC50 calculation and the curve fitting were performed using the GraphPad Prism software.
Molecule `Oc1ccc(Cl)c(Cl)c1C1Cc2nnc(C3CCN(C4CCOCC4)CC3)n2C1` (stereo not drawn) [Example 22, 3,4-Dichloro-2-(3-(1-(tetrahydro-2H-pyran-4-yl)piperidin-4-yl)-6,7-dihydro-5H-pyrrolo[2,1-c][1,2,4]triazol-6-yl)phenol] has an IC50 of 13.6 nM. `CC(C)c1nnc2n1CC(c1c(O)ccc(Cl)c1Cl)C2` (stereo not drawn) [Example 8, 3,4-Dichloro-2-(3-isopropyl-6,7-dihydro-5H-pyrrolo[2,1-c][1,2,4]triazol-6-yl)phenol] was tested, and the IC50 was 20.6 nM. `CN1CCC(c2nnc3n2C[C@H](c2c(O)ccc(Cl)c2Cl)C3)C1` (stereo partly drawn) [Example 49, 3,4-Dichloro-2-((6S)-3-(1-methylpyrrolidin-3-yl)-6,7-dihydro-5H-pyrrolo[2,1-c][1,2,4]triazol-6-yl)phenol] gave an IC50 of 3.64 nM. For `Oc1ccc(Cl)c(Cl)c1[C@H]1Cc2ncc(C3CCCC3)n2C1` [Example 91, (R)-3,4-dichloro-2-(3-cyclopentyl-6,7-dihydro-5H-pyrrolo[1,2-a]imidazol-6-yl)phenol], the IC50 was 4.92 nM. With `CCn1ncc2c1CC(c1c(O)ccc(Cl)c1Cl)C2` (single isomer, unassigned) [Example 118] the IC50 was 14.6 nM. `CCc1c2c(nn1C)CC(c1c(O)ccc(Cl)c1Cl)C2` (stereo not drawn) [Example 113, 3,4-Dichloro-2-(3-ethyl-2-methyl-2,4,5,6-tetrahydrocyclopenta[c]pyrazol-5-yl)phenol] gave an IC50 of 57.9 nM. `Oc1ccc(Cl)c(Cl)c1[C@@H]1Cc2nnc(-c3cn[nH]c3)n2C1` [Example 46, (S)-2-(3-(1H-Pyrazol-4-yl)-6,7-dihydro-5H-pyrrolo[2,1-c][1,2,4]triazol-6-yl)-3,4-dichlorophenol] showed an IC50 of 5.12 nM. `Oc1ccc(Cl)c(Cl)c1C1Cc2nnc(CN3CCOCC3)n2C1` (stereo not drawn) [Example 20, 3,4-Dichloro-2-(3-(morpholinomethyl)-6,7-dihydro-5H-pyrrolo[2,1-c][1,2,4]triazol-6-yl)phenol] was tested, and the IC50 was 35.3 nM. Work on `Oc1ccc(Cl)c(Cl)c1[C@@H]1Cc2nnc([C@@H]3CCCNC3)n2C1` [Example 59, 3,4-dichloro-2-((S)-3-((R)-piperidin-3-yl)-6,7-dihydro-5H-pyrrolo[2,1-c][1,2,4]triazol-6-yl)phenol] yielded an IC50 of 2.56 nM. `CC(C)(C#N)c1nnc2n1CC(c1c(O)ccc(Cl)c1Cl)C2` (stereo not drawn) [Example 4, 2-(6-(2,3-Dichloro-6-hydroxyphenyl)-6,7-dihydro-5H-pyrrolo[2,1-c][1,2,4]triazol-3-yl)-2-methylpropanenitrile] was tested, and the IC50 was 45.2 nM. With `O=c1n(C2CCOCC2)nc2n1C[C@H](c1c(O)ccc(Cl)c1Cl)C2` [Example 108, (S)-6-(2,3-Dichloro-6-hydroxyphenyl)-2-(tetrahydro-2H-pyran-4-yl)-2,5,6,7-tetrahydro-3H-pyrrolo[2,1-c][1,2,4]triazol-3-one] the IC50 was 27.8 nM. With `Oc1ccc(Cl)c(Cl)c1C1Cc2nnc(C(F)F)n2C1` (stereo not drawn) [Example 25, 3,4-Dichloro-2-(3-(difluoromethyl)-6,7-dihydro-5H-pyrrolo[2,1-c][1,2,4]triazol-6-yl)phenol] the IC50 was 11.1 nM. With `O=C(c1nnc2n1CC(c1c(O)ccc(Cl)c1Cl)C2)N1CCC(O)C1` (stereo not drawn) [Example 12, (6-(2,3-Dichloro-6-hydroxyphenyl)-6,7-dihydro-5H-pyrrolo[2,1-c][1,2,4]triazol-3-yl)(3-hydroxypyrrolidin-1-yl)methanone] the IC50 was 30.9 nM. In the case of `CCc1cnc2n1C[C@@H](c1c(O)ccc(Cl)c1Cl)C2` [Example 93, (R)-3,4-dichloro-2-(3-ethyl-6,7-dihydro-5H-pyrrolo[1,2-a]imidazol-6-yl)phenol], the IC50 is reported as 3.11 nM. `CCc1nnc2n1C[C@H](c1c(O)ccc(Cl)c1Cl)C2` [Example 34, (S)-3,4-Dichloro-2-(3-ethyl-6,7-dihydro-5H-pyrrolo[2,1-c][1,2,4]triazol-6-yl)phenol] showed an IC50 of 9.75 nM. In the case of `COC(=O)N1CCC(c2nnc3n2C[C@H](c2c(O)ccc(Cl)c2Cl)C3)C1` (single isomer, unassigned) [Example 50], the IC50 is reported as 10.9 nM. In the case of `CCn1nc2n(c1=O)C[C@H](c1c(O)ccc(Cl)c1Cl)C2` [Example 106, (S)-6-(2,3-Dichloro-6-hydroxyphenyl)-2-ethyl-2,5,6,7-tetrahydro-3H-pyrrolo[2,1-c][1,2,4]triazol-3-one], the IC50 is reported as 29.8 nM. In the case of `CC(F)(F)c1nnc2n1C[C@H](c1c(O)ccc(Cl)c1Cl)C2` [Example 85, (S)-3,4-Dichloro-2-(3-(1,1-difluoroethyl)-6,7-dihydro-5H-pyrrolo[2,1-c][1,2,4]triazol-6-yl)phenol], the IC50 is reported as 24.5 nM. For `O=c1n(C2CCNCC2)nc2n1CC(c1c(O)ccc(Cl)c1Cl)C2` (stereo not drawn) [Example 105, 6-(2,3-Dichloro-6-hydroxyphenyl)-2-(piperidin-4-yl)-2,5,6,7-tetrahydro-3H-pyrrolo[2,1-c][1,2,4]triazol-3-one], the IC50 was 5.93 nM. For `Cn1cc(-c2nnc3n2C[C@H](c2c(O)ccc(Cl)c2Cl)C3)cn1` [Example 40, (S)-3,4-Dichloro-2-(3-(1-methyl-1H-pyrazol-4-yl)-6,7-dihydro-5H-pyrrolo[2,1-c][1,2,4]triazol-6-yl)phenol], the IC50 was 10.6 nM. For `Oc1ccc(Cl)c(Cl)c1C1Cc2nnc(C3CCN(C4CC4)CC3)n2C1` (stereo not drawn) [Example 11, 3,4-Dichloro-2-(3-(1-cyclopropylpiperidin-4-yl)-6,7-dihydro-5H-pyrrolo[2,1-c][1,2,4]triazol-6-yl)phenol], the IC50 was 9.24 nM. `Oc1ccc(Cl)c(Cl)c1C1Cc2nnc(C3CCN(C4CCCCC4)CC3)n2C1` (single isomer, unassigned) [Example 79] was tested, and the IC50 was 14.8 nM. Work on `CC1(c2nnc3n2C[C@H](c2c(O)ccc(Cl)c2Cl)C3)CCOC1` (single isomer, unassigned) [Example 64] yielded an IC50 of 42.8 nM. For `CCc1nn(C)c2c1C[C@H](c1c(O)ccc(Cl)c1Cl)C2` [Example 115, (S)-3,4-Dichloro-2-(3-ethyl-1-methyl-1,4,5,6-tetrahydrocyclopenta[c]pyrazol-5-yl)phenol], the IC50 was 58.8 nM. Work on `Oc1ccc(Br)c(Cl)c1C1Cc2nnc([C@@H]3CCOC3)n2C1` (stereo partly drawn) [Example 120, (S)-4-Bromo-3-chloro-2-(3-(tetrahydrofuran-3-yl)-6,7-dihydro-5H-pyrrolo[2,1-c][1,2,4]triazol-6-yl)phenol] yielded an IC50 of 20.2 nM. `Oc1ccc(Cl)c(Cl)c1[C@@H]1Cc2nnc(C3CCCC3)n2C1` [Example 67, (S)-3,4-Dichloro-2-(3-cyclopentyl-6,7-dihydro-5H-pyrrolo[2,1-c][1,2,4]triazol-6-yl)phenol] showed an IC50 of 10.2 nM. For `Oc1ccc(Cl)c(Cl)c1[C@@H]1Cc2ncc(C3CCCC3)n2C1` [Example 90, (S)-3,4-Dichloro-2-(3-cyclopentyl-6,7-dihydro-5H-pyrrolo[1,2-a]imidazol-6-yl)phenol], the IC50 was 7.08 nM. In the case of `Oc1ccc(Cl)c(Cl)c1[C@@H]1Cc2nnc(C3CCCOC3)n2C1` (single isomer, unassigned) [Example 69], the IC50 is reported as 53 nM. With `Oc1ccc(Cl)c(Cl)c1[C@@H]1Cc2nnc([C@@H]3CCNC3)n2C1` [Example 48, 3,4-dichloro-2-((S)-3-((R)-pyrrolidin-3-yl)-6,7-dihydro-5H-pyrrolo[2,1-c][1,2,4]triazol-6-yl)phenol] the IC50 was 8.49 nM. `Oc1ccc(Cl)c(Cl)c1C1Cc2nnc(N3CCOCC3)n2C1` (stereo not drawn) [Example 101, 3,4-Dichloro-2-(3-morpholino-6,7-dihydro-5H-pyrrolo[2,1-c][1,2,4]triazol-6-yl)phenol] was tested, and the IC50 was 9.8 nM. With `Cn1cc(-c2nnc3n2C[C@H](c2c(O)ccc(Cl)c2Cl)C3)ccc1=O` [Example 38, (S)-5-(6-(2,3-Dichloro-6-hydroxyphenyl)-6,7-dihydro-5H-pyrrolo[2,1-c][1,2,4]triazol-3-yl)-1-methylpyridin-2(1H)-one] the IC50 was 43.1 nM. Work on `Cc1cc(-c2nnc3n2C[C@H](c2c(O)ccc(Cl)c2Cl)C3)ccn1` [Example 84, (S)-3,4-Dichloro-2-(3-(2-methylpyridin-4-yl)-6,7-dihydro-5H-pyrrolo[2,1-c][1,2,4]triazol-6-yl)phenol] yielded an IC50 of 8.04 nM. With `Oc1ccc(Cl)c(Cl)c1[C@@H]1Cc2nnc([C@H]3C[C@H]4CC[C@@H]3O4)n2C1` [Example 60, 2-((S)-3-((1S,2R,4R)-7-Oxabicyclo[2.2.1]heptan-2-yl)-6,7-dihydro-5H-pyrrolo[2,1-c][1,2,4]triazol-6-yl)-3,4-dichlorophenol] the IC50 was 27.6 nM. Molecule `N#Cc1ccc(-c2nnc3n2CC(c2c(O)ccc(Cl)c2Cl)C3)cc1` (stereo not drawn) [Example 6, 4-(6-(2,3-dichloro-6-hydroxyphenyl)-6,7-dihydro-5H-pyrrolo[2,1-c][1,2,4]triazol-3-yl)benzonitrile] has an IC50 of 13.2 nM. For `OCCc1nnc2n1C[C@H](c1c(O)ccc(Cl)c1Cl)C2` [Example 32, (S)-3,4-Dichloro-2-(3-(2-hydroxyethyl)-6,7-dihydro-5H-pyrrolo[2,1-c][1,2,4]triazol-6-yl)phenol], the IC50 was 13 nM. In the case of `Oc1ccc(Cl)c(Cl)c1C1Cc2nnc(CC(F)(F)F)n2C1` (stereo not drawn) [Example 15, 3,4-Dichloro-2-(3-(2,2,2-trifluoroethyl)-6,7-dihydro-5H-pyrrolo[2,1-c][1,2,4]triazol-6-yl)phenol], the IC50 is reported as 26.8 nM.
